Key:
[1] = test system: B16-Sb9 KO cells; assay: RT-PCR gene expression in B16-Sb9 KO cells; format: cell-based, mouse
Procedure: Total RNA was prepared from cells using the Quick-RNA MiniPrep kit (Zymo Research, Irvine, Calif., USA), according to the manufacturer's instructions. cDNA was prepared from total RNA using SuperScript III Reverse Transcriptase (Invitrogen). Following reverse transcription, quantitative PCR was performed using a cycling profile consisting of 95° C. for 2 min (Stage I), 30 cycles of 95° C. for 20 s, 58° C. for 30 s, and 70° C. for 30 s (Stage II), and 65° C. for 5 s (Stage III). Fold changes were determined by subtracting Cq values of the loading control from the Cq values of the gene of interest. The results were normalized to untreated controls.
(§1) To evaluate the off-target effects of the compound of Formula (III) to Sb9 proteins, the B16-Sb9 KO melanoma cells were treated with various concentrations of the compound of Formula (III). […] Furthermore, the antitumor effects of the compound of Formula (III) on the Sb9 KO mice bearing B16-Sb9 KO tumors, as compared to control group were not observed (FIG. 5N).

[2] = test system: B16-Sb9 KO melanoma cells; assay: Apoptosis by flow cytometry (Annexin-V, viability dye) in Sb9 knockout cells; format: cell-based, mouse; conditions: 50 μM, 100 μM, and 200 μM
Procedure: FIG. 5M. […] Cells treated with PBS alone were used as a negative control. Data are expressed as means±SD from three independent experiments.
as §1

[3] = test system: B16 melanoma cells; assay: Caspase-3 activity assay (EnzChek Caspase-3 Assay Kit), caspase-3 induction in tumor cells; format: cell-based, mouse; conditions: 200 μM
Summary of the method: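 B16 melanoma cells exposed to compounds for 24 h, lysed on ice 30 min, and lysate incubated with Z-DEVD-R110 substrate about 30 min at room temperature. Fluorescence read at ~496/520 nm against untreated-cell and no-enzyme controls; caspase-3 induction serves as surrogate for GrB activity from Sb9 inhibition.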

[4] = test system: 4T1 breast tumors; assay: 4T1 breast tumor model in BALB/c mice; format: in vivo, mouse
Procedure: (§2) Mice were anesthetized with isoflurane, and tumor cell lines (B16, A375, and 4T1) were gently injected subcutaneously in the flanks or mammary glands of mice. One hundred thousand cells (1×10^5 cells) were injected per mouse for most of the experiments. However, twenty-five thousand cells (25×10^3 cells) were injected per mouse for the experiments using the compound of Formula (III). Upon 4 hrs post-implantation, 300 μg of the compound of Formula (III) was administered twice a day intraperitoneally for 14 days. Tumor growth was monitored three times per week by digital caliper (Fisherbrand™ Traceable™ Digital Calipers).
Sb9 is highly expressed in human primary breast tumor cells (FIG. 6D) and in the stromal cells within the TME (FIGS. 6D-6E). Whether the compound of Formula (III) could be used to treat mice implanted with 4T1 breast tumor cells was therefore determined. […] Treatment with the compound of Formula (III) increased the median survival time (MST) of mice bearing 4T1 breast tumors and receiving treatment with the compound of Formula (III) as compared to mice bearing 4T1 breast tumors and not receiving treatment (MST=28 days vs MST=22 days, respectively) (FIG. 6G).
For mouse Breast Cancer model, 1×10^5 4T1 cells were subcutaneously implanted into the fourth mammary pad of BABL/c mice, and mice were separated randomly into three groups: Control, compound of Formula (I), and compound of Formula (II). In the compound of Formula (I) group, mice were treated with the compound of Formula (I) for 14 days consecutively ([…], i.p, twice a day). In the compound of Formula (II) group, mice were administrated the compound of Formula (II) 14 days consecutively (300 μg/mouse, i.p, twice a day). Tumor sizes were measured every 3 days from day 5 post-tumor implantation and calculated with formula length×width^2/2.

[5] = test system: GrB; assay: Grantoxilux assay of GrB activity in B16 cells; format: cell-based, mouse; conditions: 200 μM, 24 h
[6] = test system: B16-WT mouse melanoma tumors; assay: B16 melanoma tumor model in C57BL/6 mice; format: in vivo
Procedure: as §2
The anti-tumor activity of the compound of Formula (III) in vivo was assessed. […] Treatment with the compound of Formula (III) increased the median survival time (MST) of mice bearing B 16-WT mouse melanoma tumors and receiving treatment with the compound of Formula (III) as compared to mice bearing B16-WT melanoma tumors and not receiving treatment (MST=39 days vs MST=26 days, respectively) (FIG. 51B). Next, the effect of the compound of Formula (III) on tumor immunity was examined.
The efficacy of the compound of Formula (III) was assessed in C57BL/6J mice (FIG. 18). B16 mouse melanoma cells were implanted subcutaneously into the right flanks of C57BL/6J mice, and the mice were randomized into three groups: (1) no treatment (control), (2) treatment with anti-PD1, and (3) treatment with Formula (III). The mice in the anti-PD1 group received 200 μg of anti-PD1 iv every 3 days, and those in the Formula (III) group received 300 μg of Formula (III) twice a day consecutively for 14 days.
A survival study using the compound of Formula (IV) in mice harboring B16 melanoma was performed. Mice implanted with B16 tumors were treated with the compound of Formula (IV) (n=8) and compared to a control group having B16 tumors and not receiving treatment with the compound of Formula (IV) (n=8).

[7] = 17 days post-implantation, flow cytometry

O=C(O)c1ccc2ncoc2c1 [Formula (III), 1,3-benzoxazole-6-carboxylic acid]
gene expression of caspase-3/8, P53, and Bcl-2 [1]: no significant effect | additional apoptosis in Sb9 knockout cells (off-target) [2]: No additional apoptotic effect | increase in caspase-3 activity compared to 3,4-dihydroxybenzoic acid ([3]; 24 h): ~4 fold | GrB-mediated apoptosis (caspase-3 activity) ([3]; GrB inhibitor (368050) 10 μM): induced GrB-mediated apoptosis | levels of stromal cells and CAFs in breast tumors ([4]; 17 days post-implantation): reduced levels | reduction of size of 4T1-derived tumors vs control ([4]; BALB/c mice, 300 μg i.p. bid for 14 days): 2.5 fold | median survival time (MST) ([4]; mice bearing 4T1 breast tumors, 300 μg i.p. bid for 14 days): 28 days | activity of GrB [5]: increased activity of GrB | level of effector IFNγ+ CD4+ cells in TME ([6]; 17 days post-implantation): increased level | level of immunosuppressive IL10+CD4+ and IL10+CD8+ cells in TME ([6]; 17 days post-implantation): decreased level | levels of immunosuppressive Tregs, TAMs, and MDSCs in melanoma vs control [6, 7]: significantly lower | populations of CD44+ CD62L− (effector memory) CD8+, GrB+ CD8+ and IFNγ+ CD8+ in melanoma vs control [6, 7]: significantly higher | median survival time (MST) ([6]; B16-WT tumors, 300 μg i.p. bid for 14 days (FIG. 5B)): 39 days | median survival time (MST) ([6]; C57BL/6J, FIG. 18, Formula (III) 300 μg twice a day 14 days, anti-PD1 200 μg iv every 3 days): 36 days | reduction of size of B16 tumors vs control ([6]; C57BL/6 mice, 300 μg i.p. bid for 14 days): 3.7 fold

— patent US20230255906A1, “Targeting Serpin B9 in Cancer” (The Brigham and Women`s Hospital, Inc., priority 2020, published 2023)
